US7744920B2, “Use of liposomal glucocorticoids for treating inflammatory states” (Hadasit Medical Research Services & Development Limited, priority 2004, dated 2010)
Where “and” joins values, the source holds several entries; their conditions need not be identical. Equal entries are not always repeated. Blank lines part the entries; values can stand above or below the compound they belong to.

Key:
Adjuvant Arthritis (AA) [1] = assay: Treatment of Adjuvant Arthritis (AA), injections from day 10 after induction; format: in vivo, Lewis rats; conditions: 2 i.v. injections on days 10 and 14, 5 then 10 mg/kg BW (FIG. 7A)
[2] = State of aggregation (turbidity) of MPS as function of pH; format: physicochemical
Experimental: Aggregation of MPS was determined from the change in turbidity measured as intensity of light scattered at 90° to excitation beam using a spectrofluormeter under conditions that MPS lack absorbance (excitation and emission at the same wavelength Ex=600 nm Em=600 nm). There is a large increase in the light scattered by MPS solution/dispersion due to formation of aggregates.
The intensity of scattered light (at 90° to the excitation), also defined as turbidity is proportional to concentration and to the size of the aggregates. [Zuidam, N. J. and Barenholz, Y., Biochim. Biophys. Acta 1368:115-128 (1998)]. The state of aggregation of MPS was tested in the following manner: To quartz cuvette MPS (2 ml) at concentration of ˜6.5mg/ml MPS was added. The solution was tittered with HCl (1.756 M) and light scattering using excitation and emission at (both at 600 nm with attenuation of 1%) and pH of the solution was monitored.

[3] = Precipitation of MPS in calcium acetate solution; format: physicochemical; conditions: 600 mOsm Ca-acetate, 63° C, 5 mg/ml, 40 minutes
Experimental: To 600 mOsm Ca-acetate solution at 63° C and at different pH points MPS was added at final concentration of 5 mg/ml, then mixed solution was incubated for 40 minutes after which the solution was centrifuged and the supernatant was analyzed using […].

[4] = Partition coefficient (logD) by shake flask; format: physicochemical; conditions: FIG. 1B
Experimental: Partition coefficient (logD) of some GC derivatives (which are amphipathic weak acids) was determined by the ‘shake flask’ as described [Samuni, A. M. and Barenholz, Y., Free Radicals Biol. Med. 22:1165-1174 (1997)].

[5] = Experimental: Surface tension was measured using μtrouge S (Kibron Inc., Helsinki Finland). A solution containing GC derivative (300 μL) was placed in the well after calibration and zeroing of the sensor using pure water and air. The measurement was performed at 26° C.
Adjuvant Arthritis (AA) [6] = assay: Effect of SSL-MPS on AA at peak of disease; format: in vivo, Lewis rats; conditions: for AA score after the second injection at day 23: SSL-MPS and free-MPS 10 mg/kg BW on days 19, 23, Remicade 5 mg/kg on day 19; for clinical score immediately after the first injection: day 19, SSL-MPS and free-MPS 10 mg/kg BW, Remicade 5 mg/kg
[7] = Loading efficiency of MPS into liposomes; format: physicochemical; conditions: HSPC:Chol:2000PEG-DSPE liposomes
Experimental: A stock solution of methylprednisolone hemisuccinate sodium salt (MPS, the GC derivative) was dissolved in 5% dextrose (pH 7.2) to a concentration of ˜9 mg/ml and added to the preformed SSL dispersion after the calcium acetate gradient was established. MPS concentration was ˜9 mg/ml and phospholipid ˜32 mM phosphate.
Loading was achieved by incubation of the components above for the desired time at 62° C. (above matrix lipid Tm). Liposomes were then cooled to 4° C. and dialyzed against 5% dextrose at 4° C. to remove acetate released during loading and to remove unloaded drug or alternatively unloaded drug was removed by the ion exchanger Dowex 1×400 mesh (Cl^− form).
Loading efficiency is the ratio between MPS/phospholipid concentrations after and before loading. The quantification of MPS was done in an HPLC apparatus as described by Anderson, and Taphouse 1981 [Anderson B. D. and Taphouse. V. J Pharm Sci, 70:181-6 (1981)], quantification of phospholipid was done by modified Bartlet procedure [Shmeeda, H., et al. In: Methods in Enzymology “Liposomes”, (Düzgünes, N., ed.), 367:272-292 (2003)].

[8] = Stability of liposomal formulation upon storage at 4° C. (gel exclusion chromatography); format: physicochemical; conditions: encapsulated in liposome, storage at 4° C. for 14 months
Experimental: The level of MPS released from SSL-MPS was determined by first separating the liposomes from free MPS using gel exclusion chromatography on Sepharose cross-linked CL-4B column using. Liposomes were eluted at the void volume and the free MPS at the later eluted fractions (FIG. 3A-3B). Stability upon storage at 4° C. and kinetic of release at 37° C. in 80% plasma was determined by gel exclusion chromatography described above. Then the different column fractions were analyzed as described above, for MPS, phospholipids and Ca in the void volume fraction.

[9] = cited from earlier work
[10] = liposomal formulation, after 24 hours, ex vivo; cited from earlier work

- state of aggregation (turbidity) ([2]; acidic pH): aggregates
- state of aggregation (turbidity) ([2]; pH 7.2): non-aggregated water soluble
- % MPS precipitated ([3]; pH 4.5): 97% and 96.6%
- % MPS precipitated ([3]; pH 6.2): 42.8%
- % MPS precipitated ([3]; pH 6.8): 44.1%
- partition coefficient at different pH points [4]: amphipathic substance
- CAC (critical association/aggregation concentration) ([5]; 26° C.): ~5 mM
- % Encapsulation ([7]; batch 04 May 2005, after dialysis): 93.2%
- % Encapsulation ([7]; batch 06 Apr. 2005, after dialysis): 96.6%
- % Encapsulation ([7]; batch 18 Jul. 2004, after dialysis): 99.1%
Compound: C[C@H]1C[C@@H]2[C@H]([C@@H](O)C[C@@]3(C)[C@H]2CC[C@]3(O)C(=O)COC(=O)CCC(=O)[O-])[C@@]2(C)C=CC(=O)C=C12.[Na+] [MPS, methylprednisolone sodium hemisuccinate]
- effect on AA (Adjuvant Arthritis (AA) [1]): neither the free MPS nor the empty liposome had any effect on AA
- surface activity ([5]; concentrations 0.785-30 mM): surface active at all concentrations used
- AA score after the second injection at day 23 (Adjuvant Arthritis (AA) [6]): minimal decline
- clinical score immediately after the first injection (Adjuvant Arthritis (AA) [6]): very slow decline

- reduction in the GC derivative from initial concentration [8]: less than 20%
Compound: C[C@H]1C[C@@H]2[C@H]([C@@H](O)C[C@@]3(C)[C@H]2CC[C@]3(O)C(=O)COC(=O)CCC(=O)O)[C@@]2(C)C=CC(=O)C=C12 [Methylprednisolone hemisuccinate]

Compound: REMICADE: positive control, Remicade 5 mg/kg (on day 19)
- AA score after the second injection at day 23 (Adjuvant Arthritis (AA) [6]): minimal decline
- clinical score immediately after the first injection (Adjuvant Arthritis (AA) [6]): very slow decline

Compound: triamcinolone acetonide phosphate
- pKa [9]: below 2
- acidic corticosteroid retained by the liposome [10]: more than 75%
